Test results taken from patent US4073903A, “3-Desacetoxymethyl-3- 5'(1-methyltetrazolyl)thio!methyl-7- 1-(4-nitr oimidazolyl)acetyl!aminocephalosporanic acid” (Pierrel S.p.A., priority 1975, dated 1978).
In brackets after ≈: the same amount, converted by molar mass. Where two headings read alike, the source gives them in different places.

Tests used:
[1] = system: Klebsiella pneumoniae; assay: MIC against clinical isolates, broth dilution test (Table II); settings: Klebsiella pneumoniae, 24 h
[2] = system: Escherichia coli; assay: MIC against clinical isolates, broth dilution test (Table III); settings: Escherichia coli, 24 h
[3] = system: Escherichia coli; assay: Treatment of mice systemically infected with Escherichia coli (Table V); settings: in Mus musculus, 168 h, read-out: ED50 per treatment
[4] = system: Klebsiella pneumoniae; settings: in Mus musculus, 168 h, read-out: ED50 per treatment
[5] = system: Salmonella essen; assay: MIC against Ampicillin-resistant clinical isolates, broth dilution test (Table IV); settings: Salmonella enterica, 24 h, read-out: Minimun inhibitory concentration (MIC)
[6] = system: Salmonella wien; assay: as above; settings: Salmonella enterica, 24 h
[7] = system: Salmonella heidelberg; assay: as above; settings: Salmonella enterica, 24 h, read-out: Minimun inhibitory concentration (MIC)

MIC ([1]; read-out: Minimum inhibitory concentration (MIC), clinical isolate LRP 128): 25 mg/L (≈ 55 µM) | MIC ([1]; read-out: Minimum inhibitory concentration (MIC), clinical isolate LRP 129): 3.12 mg/L (≈ 6.86 µM) | MIC ([1]; read-out: Minimum inhibitory concentration (MIC), clinical isolate LRP 130): 25 mg/L (≈ 55 µM) | MIC ([1]; read-out: Minimum inhibitory concentration (MIC), clinical isolate LRP 131): 25 mg/L (≈ 55 µM) | MIC ([1]; read-out: Minimum inhibitory concentration (MIC), clinical isolate LRP 132): 1.56 mg/L (≈ 3.43 µM) | MIC ([1]; read-out: Minimum inhibitory concentration (MIC), clinical isolate LRP 133): 1.56 mg/L (≈ 3.43 µM) | MIC ([1]; read-out: Minimum inhibitory concentration (MIC), clinical isolate LRP 134): 3.12 mg/L (≈ 6.86 µM) | MIC ([1]; read-out: Minimum inhibitory concentration (MIC), clinical isolate LRP 135): 25 mg/L (≈ 55 µM) | MIC ([1]; read-out: Minimum inhibitory concentration (MIC), clinical isolate LRP 136): 50 mg/L (≈ 110 µM) | MIC ([1]; read-out: Minimum inhibitory concentration (MIC), clinical isolate LRP 137): 0.25 mg/L (≈ 0.55 µM) | MIC ([2]; read-out: Minimum inhibitory concentration (MIC), clinical isolate LRP 87): 25 mg/L (≈ 55 µM) | MIC ([2]; read-out: Minimum inhibitory concentration (MIC), clinical isolate LRP 94): 6.25 mg/L (≈ 13.8 µM) | MIC ([2]; read-out: Minimum inhibitory concentration (MIC), clinical isolate LRP 96): 6.25 mg/L (≈ 13.8 µM) | MIC ([2]; read-out: Minimum inhibitory concentration (MIC), clinical isolate LRP 110): 6.25 mg/L (≈ 13.8 µM) | MIC ([2]; read-out: Minimum inhibitory concentration (MIC), clinical isolate LRP 143): 1.56 mg/L (≈ 3.43 µM) | MIC ([2]; read-out: Minimum inhibitory concentration (MIC), clinical isolate LRP 150): 12.5 mg/L (≈ 27.5 µM) | MIC ([2]; read-out: Minimum inhibitory concentration (MIC), clinical isolate LRP 151): 12.5 mg/L (≈ 27.5 µM) | MIC ([2]; read-out: Minimum inhibitory concentration (MIC), clinical isolate LRP 152): 100 mg/L (≈ 220 µM) | MIC ([2]; read-out: Minimum inhibitory concentration (MIC), clinical isolate LRP 154): 3.12 mg/L (≈ 6.86 µM) | MIC ([2]; read-out: Minimum inhibitory concentration (MIC), clinical isolate LRP 155): 1.56 mg/L (≈ 3.43 µM) | MIC ([2]; read-out: Minimum inhibitory concentration (MIC), clinical isolate LRP 156): 6.25 mg/L (≈ 13.8 µM) | MIC ([2]; read-out: Minimum inhibitory concentration (MIC), clinical isolate LRP 158): 25 mg/L (≈ 55 µM) | MIC ([2]; read-out: Minimum inhibitory concentration (MIC), clinical isolate LRP 159): 1.56 mg/L (≈ 3.43 µM) | MIC ([2]; read-out: Minimum inhibitory concentration (MIC), clinical isolate LRP 163): 3.12 mg/L (≈ 6.86 µM) | MIC [5]: 6.25 mg/L (≈ 13.8 µM) | MIC ([6]; read-out: Minimun inhibitory concentration (MIC), Ampicillin-resistant clinical isolate LRP 138): 25 mg/L (≈ 55 µM) | MIC ([6]; read-out: Minimun inhibitory concentration (MIC), Ampicillin-resistant clinical isolate LRP 140): 50 mg/L (≈ 110 µM) | MIC ([6]; read-out: Minimun inhibitory concentration (MIC), Ampicillin-resistant clinical isolate LRP 141): 100 mg/L (≈ 220 µM) | MIC [7]: 12.5 mg/L (≈ 27.5 µM)
SMILES: Cc1nnc(SCC2=C(C(=O)O)N3C(=O)[C@@H](NC(=O)Cn4cnnn4)[C@H]3SC2)s1 [Cefazolin, reference compound]
ED50 [3]: 35 mg/kg | ED50 [4]: 90 mg/kg
